Results from patent US5968907A (priority 1997, dated 1999).

biological target: cholera toxin (Vibrio cholerae serotype O1, UniProt P01556); test: biochemical; conditions: read-out: inhibition of binding of cholera toxin to ganglioside GD1b
Sequence (P01556 22-124 limits assumed): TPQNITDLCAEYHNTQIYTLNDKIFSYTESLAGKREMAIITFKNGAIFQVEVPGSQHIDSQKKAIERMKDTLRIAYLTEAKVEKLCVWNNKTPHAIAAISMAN

| SMILES | inhibition at 1000 µg/mL |
| --- | --- |
| CC(O)CC(S[C@@H]1O[C@H](CO)[C@H](O)[C@H](O)[C@H]1O)c1ccccc1 (stereo partly drawn) [Example A3, 3-Hydroxy-1-phenylbut-1-yl 1-Thio-β-D-galactopyranoside] | < 20% |
| CC1(C)CC(O)CC1S[C@@H]1O[C@H](CO)[C@H](O)[C@H](O)[C@H]1O (stereo partly drawn) [Example A6, 2,2-Dimethyl-4-hydroxycyclopent-1-yl 1-Thio-β-D-galactopyranoside] | < 20% |
| CC(O)CC(C)S[C@@H]1O[C@H](CO)[C@H](O)[C@H](O)[C@H]1O (stereo partly drawn) [Example A8, 4Hydroxypent-2-yl 1-Thio-β-D-galactopyranoside] | < 20% |
| CC(N)CC(S[C@@H]1O[C@H](CO)[C@H](O)[C@H](O)[C@H]1O)c1ccccc1 (stereo partly drawn) [Example B3, 3-Amino-1-phenylbut-1-yl 1-Thio-β-D-galactopyranoside] | < 20% |
| CC1(C)CC(N)CC1S[C@@H]1O[C@H](CO)[C@H](O)[C@H](O)[C@H]1O (stereo partly drawn) [Example B6, 2,2-Dimethyl-4aminocyclopent-1-yl 1-Thio-β-D-galactopyranoside] | ≥ 20% |
| CNC1CC(S[C@@H]2O[C@H](CO)[C@H](O)[C@H](O)[C@H]2O)C(C)(C)C1 (stereo partly drawn) [Example B6A, 2,2-Dimethyl-4-(methylamino)-cyclopent-1-yl 1-Thio-β-D-galactopyranoside] | ≥ 20% |
| CC1CCC(NC2CC(S[C@@H]3O[C@H](CO)[C@H](O)[C@H](O)[C@H]3O)C(C)(C)C2)CC1 (stereo partly drawn) [Example B6L, 2,2-Dimethyl-4-(4-methylcyclohex-1-ylamino)-cyclopent-1-yl 1-Thio-β-D-galactopyranoside] | ≥ 20% |
| CC1CCC(NC2CC(S[C@@H]3O[C@H](CO)[C@H](O)[C@H](O)[C@H]3O)C(C)(C)C2)C1 (stereo partly drawn) [Example B6Q, 2,2-Dimethyl-4-(3-methylcyclopent-1-ylamino)-cyclopent-1-yl 1-Thio-β-D-galactopyranoside] | ≥ 20% |
| CC1CCCC(NC2CC(S[C@@H]3O[C@H](CO)[C@H](O)[C@H](O)[C@H]3O)C(C)(C)C2)C1 (stereo partly drawn) [Example B6T, 2,2-Dimethyl-4-(3-methylcyclohex-1-ylamino)-cyclopent-1-yl 1-Thio-β-D-galactopyranoside] | ≥ 20% |
| CC(N)CC(C)S[C@@H]1O[C@H](CO)[C@H](O)[C@H](O)[C@H]1O (stereo partly drawn) [Example B8, 4-Aminopent-2-yl 1-Thio-β-D-galactopyranoside] | ≥ 20% |
| CC(=O)NC1CCCC1S[C@@H]1O[C@H](CO)[C@H](O)[C@H](O)[C@H]1O (stereo partly drawn) [Example C1, 2-Acetamidocyclopent-1-yl 1-Thio-β-D-galactopyranoside] | < 20% |
| CC(=O)NC(C)CC(S[C@@H]1O[C@H](CO)[C@H](O)[C@H](O)[C@H]1O)c1ccccc1 (stereo partly drawn) [Example C3, 3-Acetamido-1-phenylbut-1-yl 1-Thio-β-D-galactopyranoside] | < 20% |
| CC(=O)NC(C)CC(C)S[C@@H]1O[C@H](CO)[C@H](O)[C@H](O)[C@H]1O (stereo partly drawn) [Example C8, 4-Acetamidopent-2-yl 1-Thio-β-D-galactopyranoside] | < 20% |
| O=C(O)c1ccccc1C(=O)NC1CCCC1S[C@@H]1O[C@H](CO)[C@H](O)[C@H](O)[C@H]1O (stereo partly drawn) [Example D1, 2-(2-Carboxybenzamido)cyclopent-1-yl 1-Thio-β-D-galactopyranoside] | ≥ 20% |
| CC(CC(S[C@@H]1O[C@H](CO)[C@H](O)[C@H](O)[C@H]1O)c1ccccc1)NC(=O)c1ccccc1C(=O)O (stereo partly drawn) [Example D3, 3-(2-Carboxybenzamido)-1-phenylbut-1-yl 1-Thio-β-D-galactopyranoside] | < 20% |
| CC(CC(C)S[C@@H]1O[C@H](CO)[C@H](O)[C@H](O)[C@H]1O)NC(=O)c1ccccc1C(=O)O (some centres unmarked) [Example D8] | ≥ 20% |
| O=C(O)CNC1CCCCC(S[C@@H]2O[C@H](CO)[C@H](O)[C@H](O)[C@H]2O)C1 (stereo partly drawn) [Example E5, Nα-[3-(1-Thio-β-D-galactopyranosyl)cyclohept-1-yl]glycine] | < 20% |
